The text below walks through data of US10829484B2, “Compounds and methods for kinase modulation, and indications therefor” (Plexxikon Inc., priority 2015, dated 2020).

Molecules are shown by their SMILES.

This assay concerns the target T1, BaF3-FLT3-ITD-D835V (Homo sapiens, UniProt P36888, INS600HVDFREYEYD/D835V, cells depend on it).
T1 sequence (P36888 with tags, fused parts or gaps INS600HVDFREYEYD/D835V): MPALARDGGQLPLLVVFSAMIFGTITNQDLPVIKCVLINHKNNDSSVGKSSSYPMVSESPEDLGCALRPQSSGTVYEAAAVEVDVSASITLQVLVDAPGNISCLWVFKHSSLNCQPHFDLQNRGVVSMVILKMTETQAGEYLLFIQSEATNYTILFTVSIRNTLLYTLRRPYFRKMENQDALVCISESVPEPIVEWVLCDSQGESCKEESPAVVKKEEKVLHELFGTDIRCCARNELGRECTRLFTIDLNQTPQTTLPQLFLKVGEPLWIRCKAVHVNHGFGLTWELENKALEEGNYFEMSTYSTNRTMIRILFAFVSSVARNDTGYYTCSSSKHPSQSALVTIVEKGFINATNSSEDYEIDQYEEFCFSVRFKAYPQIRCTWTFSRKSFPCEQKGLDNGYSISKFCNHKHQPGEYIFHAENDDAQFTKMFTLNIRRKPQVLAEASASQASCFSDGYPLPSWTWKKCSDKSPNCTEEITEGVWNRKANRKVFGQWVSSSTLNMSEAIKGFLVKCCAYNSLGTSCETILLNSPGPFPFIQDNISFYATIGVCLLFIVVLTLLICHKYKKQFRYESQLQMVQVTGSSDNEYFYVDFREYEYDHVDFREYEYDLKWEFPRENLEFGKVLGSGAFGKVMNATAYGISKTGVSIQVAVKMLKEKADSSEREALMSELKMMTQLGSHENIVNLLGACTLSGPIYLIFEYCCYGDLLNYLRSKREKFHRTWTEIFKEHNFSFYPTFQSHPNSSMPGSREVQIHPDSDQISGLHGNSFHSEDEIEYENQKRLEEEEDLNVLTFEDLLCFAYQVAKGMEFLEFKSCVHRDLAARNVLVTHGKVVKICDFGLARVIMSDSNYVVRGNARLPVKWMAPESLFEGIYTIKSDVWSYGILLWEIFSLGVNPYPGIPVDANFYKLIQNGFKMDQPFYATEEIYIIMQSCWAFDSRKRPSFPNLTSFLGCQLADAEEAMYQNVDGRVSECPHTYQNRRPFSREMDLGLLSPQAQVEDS
Put plainly: CTB viability assay CS0048, BaF3-FLT3-ITD-D835V. In kind it is cell-based, murine. Conditions: BaF3-FLT3-ITD-D835V cells, CellTiter Blue viability, 72 hours; read-out: Cell Assay: CS0048: BaF3-FLT3-ITD-D835V CTB:IC50. From the text:
Gene constructs containing the human FLT3 sequences FLT3-ITD, FLT3-ITD-F691L, FLT3-ITD-D835V and FLT3-D835V were synthesized by reverse translation of the human protein sequences, with codons optimized for mammalian expression. Sequence of the internal tandem duplication (ITD) was based on the MV4-11 ITD sequence. Synthetic DNA constructs were cloned into the pMSCV puro retroviral vector (Clontech) and transfected into the EcoPack2-293 packaging cell line (Clontech) to generate retroviruses that contain the different FLT3 constructs. Viruses were transduced into the IL-3-dependent, murine […] cell line, Ba/F3, and selected for puromycin resistance and IL-3 independence. All cell lines were cloned by limiting dilution and clones were used for all subsequent cell assays. Overexpression of the FLT3 mutants in the Ba/F3 cells results in constitutive phosphorylation of the exogenous FLT3 protein, which is required for IL-3 independence.
Cell lines were serum starved overnight in media containing 0.5% FBS, plated at 15,000 cells/well in 96-well white-walled tissue culture plates, and 3-fold serial dilutions of test compounds of Formula I were added for 72 hours at 37° C. CellTiter Blue (CTB, Promega) was added and incubated for an additional 3 hours at 37° C. Fluorescence was read at 560 nm excitation, 590 nm emission. Wells with CTB+media only were used for background subtraction, and the fluorescence of compound-treated cells was normalized to the fluorescence of DMSO-treated cells. IC50s were determined using Igor Pro software. All compounds are assayed in duplicate cell plates.
On the technique in general: Alamar Blue is a resazurin reagent that responds to reducing activity.
On to `Cc1nn(C)cc1Nc1ncc(-c2ccc(CC(=O)Nc3cc(C4(C(F)(F)F)CC4)on3)c(F)c2)c(Cl)n1` [P-157, 2-[4-[4-chloro-2-[(1,3-dimethylpyrazol-4-yl)amino]pyrimidin-5-yl]-2-fluoro-phenyl]-N-[5-[1-(trifluoromethyl)cyclopropyl]isoxazol-3-yl]acetamide], for which the GI50 lay within 10 to 50 nM. The figure for `Cn1cnc(Nc2ncc(-c3ccc(CC(=O)Nc4cc(C5(C(F)F)CC5)on4)c(F)c3)cn2)c1` [P-184, N-[5-[1-(difluoromethyl)cyclopropyl]isoxazol-3-yl]-2-[2-fluoro-4-[2-[(1-methylimidazol-4-yl)amino]pyrimidin-5-yl]phenyl] acetamide] is 10 to 50 nM. As for `CC(O)c1nn(C)cc1Nc1ncc(-c2ccc(CC(=O)Nc3cc(C4(C(F)(F)F)CC4)on3)c(F)c2)cn1` (stereo not drawn) [P-114, 2-[2-fluoro-4-[2-[[3-(1-hydroxyethyl)-1-methylpyrazol-4-yl]amino]pyrimidin-5-yl]phenyl]-N-[5-[1-(trifluoromethyl)cyclopropyl]isoxazol-3-yl]acetamide], the figure is 10 to 50 nM; as for `Cn1cnc(Nc2ncc(-c3ccc(CC(=O)Nc4cc(C5(C)CC5)no4)c(F)c3)cn2)c1` [P-112, 2-[2-fluoro-4-[2-[(1-methylimidazol-4-yl)amino]pyrimidin-5-yl]phenyl]-N-[3-(1-methylcyclopropyl)isoxazol-5-yl]acetamide], 10 to 50 nM. As for `Cc1cc(C(=O)N(C)C)ccc1Nc1ncc(-c2ccc(CC(=O)Nc3cc(C4(C(F)(F)F)CC4)on3)c(F)c2)cn1` [P-113, 4-[[5-[3-fluoro-4-[2-oxo-2-[[5-[1-(trifluoromethyl)cyclopropyl]isoxazol-3-yl]amino]ethyl]phenyl]pyrimidin-2-yl]amino]-N,N,3-trimethyl-benzamide], the figure is 10 to 50 nM; as for `CCc1n[nH]cc1Nc1ncc(-c2ccc(CC(=O)Nc3cc(C4(C(F)(F)F)CC4)on3)c(F)c2)cn1` [P-214, 2-(4-(2-((3-ethyl-1H-pyrazol-4-yl)amino)pyrimidin-5-yl)-2-fluorophenyl)-N-(5-(1-(trifluoromethyl)cyclopropyl)isoxazol-3-yl)acetamide], 10 to 50 nM. In the case of `COc1nn(C2CC2)cc1Nc1ncc(-c2ccc(CC(=O)Nc3cc(C4(C(F)(F)F)CC4)on3)c(F)c2)c(OC)n1` [P-136, 2-[4-[2-[(1-cyclopropyl-3-methoxypyrazol-4-yl)amino]-4-methoxy-pyrimidin-5-yl]-2-fluorophenyl]-N-[5-[1-(trifluoromethyl)cyclopropyl]isoxazol-3-yl]acetamide], the GI50 is 10 to 50 nM. As for `CCn1nccc1Nc1ncc(-c2ccc(CC(=O)Nc3cc(C4(C(F)(F)F)CC4)on3)c(F)c2)cn1` [P-103, 2-[4-[2-[(2-ethylpyrazol-3-yl)amino]pyrimidin-5-yl]-2-fluorophenyl]-N-[5-[1-(trifluoromethyl)cyclopropyl]isoxazol-3-yl]acetamide], the figure is 10 to 50 nM; as for `O=C(Cc1ccc(-c2ccc(Nc3ccccc3)nc2)cc1F)Nc1cc(C2(C(F)(F)F)CC2)on1` [P-003, 2-[4-(6-anilino-3-pyridyl)-2-fluoro-phenyl]-N-[5-[1-(trifluoromethyl)cyclopropyl]isoxazol-3-yl]acetamide], 10 to 50 nM.

Consider `COc1nn(C)cc1Nc1ncc(-c2ccc(CC(=O)Nc3cc(C4(C(F)(F)F)CC4)on3)c(F)c2)c(C)n1` [P-124, 2-[2-fluoro-4-[2-[(3-methoxy-1-methylpyrazol-4-yl)amino]-4-methyl-pyrimidin-5-yl]phenyl]-N-[5-[1-(trifluoromethyl)cyclopropyl]isoxazol-3-yl] acetamide], for which the GI50 was 10 to 50 nM. Regarding `Cc1nn(C)cc1Nc1ncc(-c2ccc(CC(=O)Nc3cc(C4(C(F)(F)F)CC4)on3)c(F)c2)c(C)n1` [P-116, 2-[4-[2-[(1,3-dimethylpyrazol-4-yl)amino]-4-methyl-pyrimidin-5-yl]-2-fluorophenyl]-N-[5-[1-(trifluoromethyl)cyclopropyl]isoxazol-3-yl] acetamide], the GI50 lay within 10 to 50 nM. `COc1cc(Nc2ncc(-c3ccc(CC(=O)Nc4cc(C5(C(F)(F)F)CC5)on4)c(F)c3)cn2)n(C)n1` [P-164, 2-[2-fluoro-4-[2-[(5-methoxy-2-methyl-pyrazol-3-yl)amino]pyrimidin-5-yl]phenyl]-N-[5-[1-(trifluoromethyl)cyclopropyl]isoxazol-3-yl]acetamide]: the GI50 was in the range of 10 to 50 nM. As for `O=C(Cc1ccc(-c2cnc(Nc3ccccc3)cn2)cc1F)Nc1cc(C2(C(F)(F)F)CC2)on1` [P-005, 2-[4-(5-anilinopyrazin-2-yl)-2-fluorophenyl]-N-[5-[1-(trifluoromethyl)cyclopropyl]isoxazol-3-yl]acetamide], the GI50 was 10 to 50 nM. Take `COCCOc1nn(C)cc1Nc1ncc(-c2ccc(CC(=O)Nc3cc(C4(C(F)(F)F)CC4)on3)c(F)c2)cn1` [P-148, 2-[2-fluoro-4-[2-[[3-(2-methoxyethoxy)-1-methylpyrazol-4-yl]amino]pyrimidin-5-yl]phenyl]-N-[5-[1-(trifluoromethyl)cyclopropyl]isoxazol-3-yl]acetamide]: the GI50 lay within 10 to 50 nM. The figure for `Cn1nccc1Nc1ncc(-c2ccc(CC(=O)Nc3cc(C4(C(F)(F)F)CC4)on3)c(F)c2)cn1` [P-091, 2-[2-fluoro-4-[2-[(2-methylpyrazol-3-yl)amino]pyrimidin-5-yl]phenyl]-N-[5-[1-(trifluoromethyl)cyclopropyl]isoxazol-3-yl]acetamide] is 10 to 50 nM.

In the case of `CCn1cnc(Nc2ncc(-c3ccc(CC(=O)Nc4cc(C5(C(F)(F)F)CC5)on4)c(F)c3)cn2)c1` [P-068, 2-[4-[2-[(1-ethylimidazol-4-yl)amino]pyrimidin-5-yl]-2-fluorophenyl]-N-[5-[1-(trifluoromethyl)cyclopropyl]isoxazol-3-yl]acetamide], the GI50 is 10 to 50 nM. The figure for `COc1nn(C)cc1Nc1ncc(-c2ccc(CC(=O)Nc3cc(C4(C(F)(F)F)CC4)on3)c(F)c2)c(OC)n1` [P-123, 2-[2-fluoro-4-[4-methoxy-2-[(3-methoxy-1-methyl-pyrazol-4-yl)amino]pyrimidin-5-yl]phenyl]-N-[5-[1-(trifluoromethyl)cyclopropyl]isoxazol-3-yl]acetamide] is 10 to 50 nM; for `Cn1cc(Nc2ncc(-c3ccc(CC(=O)Nc4cc(C5(C(F)(F)F)CC5)on4)c(F)c3)cn2)c(C(F)(F)F)n1` [P-077, 2-[2-fluoro-4-[2-[[1-methyl-3-(trifluoromethyl)pyrazol-4-yl]amino]pyrimidin-5-yl]phenyl]-N-[5-[1-(trifluoromethyl)cyclopropyl]isoxazol-3-yl]acetamide] it is 10 to 50 nM.
